Measured values: paper PMC6892914, “Interactions of Ionic Liquids and Spirocyclic Compounds with Liposome Model Membranes. A Steady-State Fluorescence Anisotropy Study” (Scientific Reports, 2019)

Tests used:
[1] = Steady-state fluorescence anisotropy of DPH-doped liposomes, POPC; type: physicochemical; settings: 5 min incubation at RT
Source text: (§1) The technique used in the present study was steady-state fluorescence anisotropy spectroscopy (fluorescence anisotropy or anisotropy in the following text). The technique was utilised to detect organisational changes within the lipid bilayer using a fluorescent 1,6-diphenyl-1,3,5-hexatriene (DPH) probe. DPH is advantageous in the present application due to its high quantum yield and its ability to indicate subtle changes in the lipid acyl chain organisation. For general reviews on the technique, see Shinitzky & Barenholz[18] and Lentz[19]. The rod-like hydrophobic probe is rotating within the bilayer structure by Brownian motion and it is located between the hydrophobic acyl chains of the lipids. When the probe-containing liposomes are illuminated with UV-light at a fixed wavelength and a fixed level of polarized light, the probe is first excited and subsequently emits light that is partly depolarized, due to the molecular rotations of the probe. This depolarization can be measured as a numerical value of anisotropy (r), as shown by Eq. 1.1 r=I||−I⊥/IT where I|| and I⊥ are the intensities of emitted light parallel and perpendicular to the plane of excitation, respectively. IT is the total intensity of emitted light.
(§2) A reference anisotropy value for each pure liposome was determined daily. This was performed in order to normalise the liposome batch-to-batch and liposome-aging-dependent variation of the anisotropy values. The anisotropy was measured ten times and the mean ± standard deviation was calculated. Subsequently, the pure liposomes and the compounds under investigation were mixed and incubated at room temperature for 5 min, before measuring the anisotropy.
(§3) The lipids and the DPH probe were dissolved in chloroform as stock solutions and the stocks were mixed to give the target molar proportions for each liposome composition (Table 2). After mixing the chloroform lipid stocks, the lipid mixture was dried as a thin film on test tube walls by evaporating the chloroform using a flow of air, until no solvent was visible. The dried thin film of lipids was kept under vacuum for at least 12 h in a desiccator, in order to remove any traces of solvent. Ultra-pure water was added to reach the target lipid concentration of 4.0 mM. […] The aqueous mixture of DPH, lipids and water were incubated under agitation for 60 min at 65 °C and 75 °C to form the non-cholesterol-containing and cholesterol-containing multilamellar liposomes, respectively. Subsequently, the 4.0 mM liposome stock dispersions were extruded through 100 nm pore-size polycarbonate filters 19 times using an Avanti mini-extruder (Avanti Polar Lipids, Alabaster, AL, USA) in order to obtain unilamellar liposomes.
(§4) The fluorescence anisotropy values were measured using a Horiba Jobin Yvon (Northampton, UK) FluoroMax-4 spectrofluorometer, in L-format. The emission and the excitation […] were always set to the same value (8–10 nm) so that the photon counts/second at the detector were as recommended by the manufacturer (from 500 000 to 2 000 000 counts/second). The excitation and emission wavelengths were 360 nm and 450 nm, respectively. The measurements were performed at 21 ± 1 °C. Physiological temperature was not used, since the interactions between the living organism (Vibrio Fischeri) also takes place at a non-physiological temperature of 15 °C. The maximum 7 °C difference (15 °C vs. 22 °C) was considered acceptable. A reference value for the pure liposomes was measured daily. […] Both concentrations were selected by trial and error.

[2] = Steady-state fluorescence anisotropy of DPH-doped liposomes, POPC/POPS 80:20; type: physicochemical; settings: compound 50 mM, 5 min incubation at RT
Source text: as §1, §2, §3
as §4, with “daily. In order to study the interaction between the compounds and the liposomes, the pure liposomes were mixed with the compounds so that the final concentration of the lipids was 20 µM and that of the studied compounds was 50 mM.” for “daily.”

[3] = Steady-state fluorescence anisotropy of DPH-doped liposomes, POPC/POPS/Chol 55:20:25; type: physicochemical; settings: compound 50 mM, 5 min incubation at RT
Source text: as §1, §2, §3
as §4, with “daily. In order to study the interaction between the compounds and the liposomes, the pure liposomes were mixed with the compounds so that the final concentration of the lipids was 20 µM and that of the studied compounds was 50 mM.” for “daily.”

[4] = Steady-state fluorescence anisotropy of DPH-doped liposomes, POPC/Chol 75:25; type: physicochemical; settings: compound 50 mM, 5 min incubation at RT
Source text: as §1, §2, §3
as §4, with “daily. In order to study the interaction between the compounds and the liposomes, the pure liposomes were mixed with the compounds so that the final concentration of the lipids was 20 µM and that of the studied compounds was 50 mM.” for “daily.”

[5] = Steady-state fluorescence anisotropy, stated over the liposome compositions; type: physicochemical; settings: four liposome compositions; compound 50 mM
Source text: as §1
as §2, with “anisotropy. Similar to the reference measurements, the fluorescence anisotropy value after incubation with the ILs was recorded 10 times and the mean ± standard deviation was calculated.” for “anisotropy.”
In this equation r0 is the fundamental anisotropy in the absence of rotational diffusion of the probe, i.e. the maximum anisotropy value achievable using the specific excitation wavelength. At 360 nm r0 = 0.362 for DPH[26]. C(r) relates the molecular shape and the location of the transition dipoles of the rotating probe into one parameter. For spherical probes C(r) = k/v, where k is the Boltzmann constant and v is the effective volume of the probe. Therefore, C(r) would be constant for spherical molecules, but for other shapes, such as the rod-like DPH, the value is dependent on the experimental value of r. In contrast, as experimentally determined by Shinitzky and Barenholtz, the factor C(r)· T· τ = 240 mPa · s is relatively constant at 0–40 °C in membranes doped with DPH probe. T and τ are the temperature during the experiment and lifetime of the excited state, respectively. By substituting r0 = 0.362 and C(r)· T· τ = 240 mPa · s and by further rearranging of the Eqs. 2 and 3 is obtained.3 η=240mPas⋅r/0.362−r
The equation gives the approximate apparent microviscosity (±15%) based on the recorded anisotropy values. The benefit of determining this is the hyperbolic growth of the apparent microviscosity relatively to anisotropy. […]
In order to compare the anisotropy values with the toxicity values in greater detail, the relative change in anisotropy Δr (%) was calculated as given by Eq. 44 Δr=rliposome+toxicant−rpureliposome/rpureliposome where rpure liposome is the daily anisotropy value measured for each pure liposome and r liposome+toxicant the anisotropy value measured after mixing the pure liposome with the compound of interest. […]

[6] = Steady-state fluorescence anisotropy of DPH-doped liposomes, POPC/POPS/Chol 55:20:25; type: physicochemical; settings: compound 0.2 mM, 5 min incubation at RT
[7] = Steady-state fluorescence anisotropy of DPH-doped liposomes, POPC/POPS 80:20; type: physicochemical; settings: compound 0.2 mM, 5 min incubation at RT
[8] = Steady-state fluorescence anisotropy of DPH-doped liposomes, POPC/Chol 75:25; type: physicochemical; settings: compound 0.2 mM, 5 min incubation at RT
[9] = 333 mM; cited from earlier work

## C1CCC2=NCCCN2CC1.CS(=O)(=O)O [[DBUH][OMs], 1,8-Diazabicyclo[5.4.0]undec-7-enium mesylate]
[1]; compound 50 mM
  Relative change in anisotropy, Δr: -24%
[2]
  Relative change in anisotropy, Δr: -33%
[3]
  Relative change in anisotropy, Δr: -39%
[4]
  Relative change in anisotropy, Δr: -31%

## C1CC[N+]2(CC1)CCCC2.CC(=O)[O-] [[4.5][OAc], 5-Azoniaspiro[4.5]decane acetate]
[5]
  Δr, range depending on the liposome composition: −6% to +6
[1]; compound 50 mM
  Relative change in anisotropy, Δr: 6%
[2]
  Relative change in anisotropy, Δr: -5%
[3]
  Relative change in anisotropy, Δr: -6%
[4]
  Relative change in anisotropy, Δr: -1%

## 5-Methyl-1,5,7-triazabicyclo[4.3.0]non-6-enium & 7-Methyl-1,5,7-triazabicyclo[4.3.0]non-5-enium mesylate [[MTBNH][OMs]]
[1]; compound 50 mM
  Relative change in anisotropy, Δr: -20%
[2]
  Relative change in anisotropy, Δr: -26%
[3]
  Relative change in anisotropy, Δr: -36%
[4]
  Relative change in anisotropy, Δr: -27%

## C1CC[N+]2(CC1)CCCCC2.CC(=O)[O-] [[5.5][OAc], 6-Azoniaspiro[5.5]undecane acetate]
[1]; compound 50 mM
  Relative change in anisotropy, Δr: -16%
[2]
  Relative change in anisotropy, Δr: -18%
[3]
  Relative change in anisotropy, Δr: -25%
[4]
  Relative change in anisotropy, Δr: -18%

## CC(=O)[O-].CCCCCCCC[P+](C)(CCCCCCCC)CCCCCCCC [[P8881][OAc], Methyltrioctylphosphonium acetate]
[1]; compound 0.2 mM
  Relative change in anisotropy, Δr: -19%
[6]
  Relative change in anisotropy, Δr: -47%
[7]
  Relative change in anisotropy, Δr: -36%
[8]
  Relative change in anisotropy, Δr: -41%

## CS(=O)(=O)[O-].[Na+] [NaOMs, Sodium mesylate, reference compound]
[5]
  Δr, range depending on the liposome composition: 6–17%
[1]; compound 50 mM
  Relative change in anisotropy, Δr: 17%
[2]
  Relative change in anisotropy, Δr: 11%
[3]
  Relative change in anisotropy, Δr: 13%
[4]
  Relative change in anisotropy, Δr: 6%

## CC(=O)[O-].[Na+] [NaOAc, Sodium acetate, reference compound]
[5]
  Δr, range depending on the liposome composition: 11–13%
[1]; compound 50 mM
  Relative change in anisotropy, Δr: 11%
[2]
  Relative change in anisotropy, Δr: 13%
[3]
  Relative change in anisotropy, Δr: 12%
[4]
  Relative change in anisotropy, Δr: 12%

## C1CCC[N+]2(CC1)CCCCC2.CC(=O)[O-] [[5.6][OAc], 6-Azoniaspiro[5.6]dodecane acetate]
[1]; compound 50 mM
  Relative change in anisotropy, Δr: -19%
[2]
  Relative change in anisotropy, Δr: -22%
[3]
  Relative change in anisotropy, Δr: -27%
[4]
  Relative change in anisotropy, Δr: -21%

## CCO [ethanol]
[9]
  changes in fluorescence polarisation: < 10%

## CCN(CC)CC.CS(=O)(=O)O [[TEAH][OMs], Triethylammonium mesylate]
[5]
  Δr, range depending on the liposome composition: −5% to +7
[1]; compound 50 mM
  Relative change in anisotropy, Δr: 7%
[2]
  Relative change in anisotropy, Δr: -5%
[3]
  Relative change in anisotropy, Δr: -4%
[4]
  Relative change in anisotropy, Δr: 2%

## CN(C)C(=N)N(C)C.CS(=O)(=O)O [[TMGH][OMs], 1,1,3,3-Tetramethylguanidinium mesylate]
[5]
  Δr, range depending on the liposome composition: 3–11%
[1]; compound 50 mM
  Relative change in anisotropy, Δr: 11%
[2]
  Relative change in anisotropy, Δr: 6%
[3]
  Relative change in anisotropy, Δr: 5%
[4]
  Relative change in anisotropy, Δr: 3%
